According to patent US9125388B2, “Biological control” (Isis Innovation Limited, priority 1999, dated 2015):

Tests used:
Type in all cases: in vivo, Drosophila melanogaster
Details in all cases: 25° C.
[1] = tested on: Recombinant chromosome stocks; assay: Maintenance of stocks on non-antibiotic tetracycline analogues
Procedure: Recombinant chromosome stocks can readily be maintained at 25° C. on epioxytetracycline concentrations of 1 μg/ml or anhydrotetracycline concentrations of 0.1 μg/ml, showing that these non-antibiotic tetracycline analogues are effective in repressing tTA responsive gene expression.
(§1) A standard range of additive concentrations were used in the following experiments (0.05-20 μg/ml). […] (=“not done”)

[2] = tested on: Yp3 tTa, tRe Ras64B^V12 on the 2nd chromosome; assay: Recombinant chromosome experiments / maternal transmission of Tc (Table 1): parents raised on supplement, progeny on normal food, adults by sex
Procedure: (§2) 40-45 young females and 20-25 young males raised at 25° C. upon food with the indicated tetracycline supplement were allowed to mate, then transferred to normal (tetracycline-free) food after 3-4 days. These flies were transferred to fresh vials of normal food every day for 12 days, then removed on the 13th day. All the vials were incubated at 25° C. while the progeny developed. The numbers of male and female progeny emerging as adults in each vial were recorded.
as §1
(§3) All the preceding experiments were performed at 25° C., the standard temperature for Drosophila culture. However, the insects in the wild would clearly be exposed to varying temperatures, so we investigated the extent to which the efficiency of the system is affected by temperature. As with the recombinant chromosome experiments, 40-45 young virgin females and 20-25 young males raised at 25° C. upon food with the indicated tetracycline supplement were allowed to mate, then transferred to normal (tetracycline-free) food after 3-4 days. These flies were transferred to fresh vials of normal food every day. The numbers of male and female progeny emerging as adults in each vial were recorded. These experiments were performed at either 18° C. or 29° C.
We used a strain of Drosophila in which females, but not males, require Tc for viability.
A strain homozygous for second chromosome insertions of both Yp3-tTA and tRe-Ras64B^V12 was tested for the effect of parental dietary Tc. 40-45 young females and 20-25 young males raised at 25° C. upon food with the indicated tetracycline supplement were allowed to mate, then transferred to normal (tetracycline-free) food after 3-4 days. These flies were transferred to fresh vials of normal food every day for 12 days, and then removed on the 13th day. All the vials were incubated at 25° C. while the progeny developed. The total numbers of male and female progeny emerging as adults were recorded.

[3] = tested on: Sxlp^e tTa, tRe Msl-1^Mpu on the X chromosome; assay: Recombinant chromosome experiments: parents raised on supplement, progeny on normal food, adults by sex (25, 18 or 29° C.)
Procedure: as §2, §1, §3

[4] = tested on: Sxl^pe-tTA, tRE-Msl-2^Nopu on the third chromosome; assay: as above
Procedure: as §2, §1, §3

[5] = tested on: Sxl^pe-tTA, tRE-Msl-2^Nopu on the X chromosome; assay: as above
Procedure: as §2, §1, §3

[6] = tested on: Yp3 tTa, tRe Msl-2^Nopu on the 2nd chromosome; assay: as above
Procedure: as §2, §1, §3

[7] = tested on: Hsp26 tTa, tRe Msl-2^Nopu on the 2nd chromosome; assay: as above
Procedure: as §2, §1, §3

[8] = tested on: Hsp26 tTa, tRe Msl-1^Mpu on the 2nd chromosome; assay: as above
Procedure: as §2, §1, §3

[9] = tested on: Sxl^pe-tTA, tRE-Ras64B^V12 on the third chromosome; assay: as above
Procedure: as §2, §1, §3

[10] = tested on: Sxl^pe-tTA, tRE-Ras64B^V12 on the X chromosome; assay: as above
Procedure: as §2, §1, §3

[11] = tested on: Yp3 tTa, tRe Msl-1^Mpu on the 2nd chromosome; assay: as above
Procedure: as §2
Since there is no meiotic recombination in Drosophila melanogaster males, any of these recombinant chromosomes could be used in a genetic sexing or insect control program, if required.
as §1, §3

[12] = parents raised on anhydrotetracycline 0.05 μg/ml
[13] = parents raised on anhydrotetracycline 0.1 μg/ml
[14] = parents raised on anhydrotetracycline 1 μg/ml
[15] = parents raised on anhydrotetracycline 5 μg/ml
[16] = parents raised on anhydrotetracycline 20 μg/ml

Cc1c2c(c(O)c3c(O)cccc13)C(=O)[C@]1(O)C(=O)C(C(N)=O)=C(O)[C@@H](N(C)C)[C@@H]1C2 [anhydrotetracycline]
concentration on which recombinant chromosome stocks can readily be maintained [1]: 0.1 µg/mL | repressing tTA responsive gene expression [1]: effective | Female progeny emerging as adults [2, 12]: 0 | Male progeny emerging as adults [2, 12]: 1449 | Female progeny emerging as adults [2, 13]: 0 | Male progeny emerging as adults [2, 13]: 1411 | Female progeny emerging as adults [2, 14]: 0 | Male progeny emerging as adults [2, 14]: 1397 | Female progeny emerging as adults [2, 15]: 0 | Male progeny emerging as adults [2, 15]: 1430 | Female progeny emerging as adults [2, 16]: 2 | Male progeny emerging as adults [2, 16]: 1428 | Female progeny emerging as adults [3, 12]: 0 | Male progeny emerging as adults [3, 12]: 1582 | Female progeny emerging as adults [3, 13]: 0 | Male progeny emerging as adults [3, 13]: 1499 | Female progeny emerging as adults [3, 14]: 0 | Male progeny emerging as adults [3, 14]: 1474 | Female progeny emerging as adults [3, 15]: 0 | Male progeny emerging as adults [3, 15]: 1619 | Female progeny emerging as adults [3, 16]: 5 | Male progeny emerging as adults [3, 16]: 1533 | Female progeny emerging as adults [4, 12]: 0 | Male progeny emerging as adults [4, 12]: 1331 | Female progeny emerging as adults [4, 13]: 0 | Male progeny emerging as adults [4, 13]: 1431 | Female progeny emerging as adults [4, 14]: 0 | Male progeny emerging as adults [4, 14]: 1309 | Female progeny emerging as adults [4, 15]: 0 | Male progeny emerging as adults [4, 15]: 1359 | Female progeny emerging as adults [4, 16]: 1 | Male progeny emerging as adults [4, 16]: 1362 | Female progeny emerging as adults [5, 12]: 0 | Male progeny emerging as adults [5, 12]: 1114 | Female progeny emerging as adults [5, 13]: 0 | Male progeny emerging as adults [5, 13]: 1120 | Female progeny emerging as adults [5, 14]: 0 | Male progeny emerging as adults [5, 14]: 1130 | Female progeny emerging as adults [5, 15]: 0 | Male progeny emerging as adults [5, 15]: 1148 | Female progeny emerging as adults [5, 16]: 0 | Male progeny emerging as adults [5, 16]: 1128 | Female progeny emerging as adults [6, 12]: 0 | Male progeny emerging as adults [6, 12]: 1316 | Female progeny emerging as adults [6, 13]: 0 | Male progeny emerging as adults [6, 13]: 1358 | Female progeny emerging as adults [6, 14]: 0 | Male progeny emerging as adults [6, 14]: 1354 | Female progeny emerging as adults [6, 15]: 0 | Male progeny emerging as adults [6, 15]: 1344 | Female progeny emerging as adults [6, 16]: 1 | Male progeny emerging as adults [6, 16]: 1312 | Female progeny emerging as adults [7, 12]: 0 | Male progeny emerging as adults [7, 12]: 707 | Female progeny emerging as adults [7, 13]: 0 | Male progeny emerging as adults [7, 13]: 1457 | Female progeny emerging as adults [7, 14]: 0 | Male progeny emerging as adults [7, 14]: 1437 | Female progeny emerging as adults [7, 15]: 0 | Male progeny emerging as adults [7, 15]: 773 | Female progeny emerging as adults [7, 16]: 5 | Male progeny emerging as adults [7, 16]: 1447 | Female progeny emerging as adults [8, 12]: 0 | Male progeny emerging as adults [8, 12]: 1492 | Female progeny emerging as adults [8, 13]: 0 | Male progeny emerging as adults [8, 13]: 1426 | Female progeny emerging as adults [8, 14]: 0 | Male progeny emerging as adults [8, 14]: 1418 | Female progeny emerging as adults [8, 15]: 0 | Male progeny emerging as adults [8, 15]: 1457 | Female progeny emerging as adults [8, 16]: 8 | Male progeny emerging as adults [8, 16]: 1499 | Female progeny emerging as adults [9, 12]: 0 | Male progeny emerging as adults [9, 12]: 1381 | Female progeny emerging as adults [9, 13]: 0 | Male progeny emerging as adults [9, 13]: 1304 | Female progeny emerging as adults [9, 14]: 0 | Male progeny emerging as adults [9, 14]: 1121 | Female progeny emerging as adults [9, 15]: 0 | Male progeny emerging as adults [9, 15]: 1269 | Female progeny emerging as adults [9, 16]: 1 | Male progeny emerging as adults [9, 16]: 1247 | Female progeny emerging as adults [10, 12]: 0 | Male progeny emerging as adults [10, 12]: 1452 | Female progeny emerging as adults [10, 13]: 0 | Male progeny emerging as adults [10, 13]: 1528 | Female progeny emerging as adults [10, 14]: 0 | Male progeny emerging as adults [10, 14]: 1614 | Female progeny emerging as adults [10, 15]: 0 | Male progeny emerging as adults [10, 15]: 1448 | Female progeny emerging as adults [10, 16]: 5 | Male progeny emerging as adults [10, 16]: 1592 | Female progeny emerging as adults [11, 12]: 0 | Male progeny emerging as adults [11, 12]: 1339 | Female progeny emerging as adults [11, 13]: 0 | Male progeny emerging as adults [11, 13]: 1263 | Female progeny emerging as adults [11, 14]: 0 | Male progeny emerging as adults [11, 14]: 1265 | Female progeny emerging as adults [11, 15]: 0 | Male progeny emerging as adults [11, 15]: 1284 | Female progeny emerging as adults [11, 16]: 0 | Male progeny emerging as adults [11, 16]: 1297
